Reference: ChEMBL document CHEMBL2203078, “Identification of amides as carboxylic Acid surrogates for quinolizidinone-based m1 positive allosteric modulators” (ACS Med Chem Lett, 2012)
Calls of active or inactive are those of the source. The calls are words filed in the database; no cut-off is given here.

Columns and labels:
[1] = molecular target: T1, Muscarinic acetylcholine receptor M2 (Homo sapiens) (UniProt P08172); assay: Activity at muscarinic M2 receptor expressing in CHONFAT cells assessed as potentiation of acetylcholine-induced calcium mobilization preincubated for 4 mins and measured 4 mins after acetylcholine stimulation by FLIPR assay; format: functional, cell-based
T1 sequence (whole entry): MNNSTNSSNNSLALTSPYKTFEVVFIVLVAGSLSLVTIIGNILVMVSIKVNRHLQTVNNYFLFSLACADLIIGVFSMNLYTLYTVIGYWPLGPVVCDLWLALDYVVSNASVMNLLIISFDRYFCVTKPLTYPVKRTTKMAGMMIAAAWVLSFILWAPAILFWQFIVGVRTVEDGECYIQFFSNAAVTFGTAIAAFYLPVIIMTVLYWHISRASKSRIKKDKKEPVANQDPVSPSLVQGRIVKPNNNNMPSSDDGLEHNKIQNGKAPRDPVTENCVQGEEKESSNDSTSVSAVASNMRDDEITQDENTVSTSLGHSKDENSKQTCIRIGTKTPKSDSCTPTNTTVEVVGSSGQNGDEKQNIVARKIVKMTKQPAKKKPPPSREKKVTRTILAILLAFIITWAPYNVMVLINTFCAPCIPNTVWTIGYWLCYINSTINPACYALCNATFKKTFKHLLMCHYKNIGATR

[2] = molecular target: Muscarinic acetylcholine receptor M3 (Homo sapiens) (UniProt P20309); assay: Activity at muscarinic M3 receptor expressing in CHONFAT cells assessed as potentiation of acetylcholine-induced calcium mobilization preincubated for 4 mins and measured 4 mins after acetylcholine stimulation by FLIPR assay; format: functional, cell-based
Chain of Muscarinic acetylcholine receptor M3 (Homo sapiens) (P20309 whole entry, looked up): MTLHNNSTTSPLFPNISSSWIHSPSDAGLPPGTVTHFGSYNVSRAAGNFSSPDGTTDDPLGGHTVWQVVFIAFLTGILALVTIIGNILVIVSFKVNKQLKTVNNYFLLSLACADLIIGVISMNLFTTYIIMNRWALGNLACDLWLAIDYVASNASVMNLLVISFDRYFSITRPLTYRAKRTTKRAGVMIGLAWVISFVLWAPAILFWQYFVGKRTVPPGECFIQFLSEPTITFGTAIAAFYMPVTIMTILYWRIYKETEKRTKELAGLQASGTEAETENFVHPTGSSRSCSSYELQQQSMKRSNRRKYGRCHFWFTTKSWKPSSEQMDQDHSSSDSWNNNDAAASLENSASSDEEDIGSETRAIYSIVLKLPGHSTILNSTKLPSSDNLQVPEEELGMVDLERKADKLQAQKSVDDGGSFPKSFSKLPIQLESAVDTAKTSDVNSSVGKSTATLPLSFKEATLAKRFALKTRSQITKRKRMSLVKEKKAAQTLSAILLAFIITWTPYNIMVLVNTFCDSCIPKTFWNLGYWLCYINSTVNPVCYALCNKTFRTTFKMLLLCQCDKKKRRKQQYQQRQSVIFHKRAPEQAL

[3] = Drug concentration in Sprague-Dawley rat brain at 10 mg/kg, po after 2 hrs; format: ADME, organism-based; set-up: dose 10 mg/kg, route oral; details: read-out: Drug uptake
[4] = molecular target: MDR1a (P-gp, ABCB1) (Rattus norvegicus, UniProt P43245); assay: in vitro; details: not told
Chain of MDR1a (P-gp, ABCB1) (P43245 whole entry): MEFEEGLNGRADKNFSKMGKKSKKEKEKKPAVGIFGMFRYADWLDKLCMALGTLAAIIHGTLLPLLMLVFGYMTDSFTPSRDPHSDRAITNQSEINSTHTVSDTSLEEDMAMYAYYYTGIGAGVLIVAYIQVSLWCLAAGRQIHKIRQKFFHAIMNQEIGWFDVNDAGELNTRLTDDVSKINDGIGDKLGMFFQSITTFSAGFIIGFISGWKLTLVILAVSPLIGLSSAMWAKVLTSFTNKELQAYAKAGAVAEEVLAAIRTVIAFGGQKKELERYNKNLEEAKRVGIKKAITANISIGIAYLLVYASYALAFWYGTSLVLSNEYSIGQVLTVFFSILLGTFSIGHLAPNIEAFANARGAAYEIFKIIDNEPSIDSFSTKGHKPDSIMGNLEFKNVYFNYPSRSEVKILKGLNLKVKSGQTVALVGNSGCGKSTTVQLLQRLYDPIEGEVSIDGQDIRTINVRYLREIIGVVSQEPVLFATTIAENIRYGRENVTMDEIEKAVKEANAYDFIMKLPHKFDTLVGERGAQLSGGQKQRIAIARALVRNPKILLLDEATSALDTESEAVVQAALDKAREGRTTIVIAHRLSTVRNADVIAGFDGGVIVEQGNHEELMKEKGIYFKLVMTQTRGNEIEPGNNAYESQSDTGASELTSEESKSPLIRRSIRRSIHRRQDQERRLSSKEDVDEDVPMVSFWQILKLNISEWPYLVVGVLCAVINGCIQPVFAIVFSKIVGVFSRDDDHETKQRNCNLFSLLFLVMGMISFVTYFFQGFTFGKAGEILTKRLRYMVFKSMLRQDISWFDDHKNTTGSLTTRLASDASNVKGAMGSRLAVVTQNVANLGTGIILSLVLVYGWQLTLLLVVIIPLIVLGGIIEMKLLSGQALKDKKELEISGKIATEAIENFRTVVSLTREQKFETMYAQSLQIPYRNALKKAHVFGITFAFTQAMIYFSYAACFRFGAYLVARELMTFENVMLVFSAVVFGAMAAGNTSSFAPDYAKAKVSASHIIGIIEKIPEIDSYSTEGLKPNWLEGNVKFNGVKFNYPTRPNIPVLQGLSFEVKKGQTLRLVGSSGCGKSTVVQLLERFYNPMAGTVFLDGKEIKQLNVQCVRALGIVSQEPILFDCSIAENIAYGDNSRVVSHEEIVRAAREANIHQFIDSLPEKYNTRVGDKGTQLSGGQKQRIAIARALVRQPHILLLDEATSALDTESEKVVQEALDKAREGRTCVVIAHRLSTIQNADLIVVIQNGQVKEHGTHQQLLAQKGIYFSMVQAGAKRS
Description: Efflux ratio assessed as rat MDR1a-mediated directional transport ratio from basolateral to apical over apical to basolateral by cell based assay

[5] = Ratio of drug level in brain to plasma of Sprague-Dawley rat at 10 mg/kg, po after 2 hrs; format: ADME, organism-based; set-up: dose 10 mg/kg, route oral; details: read-out: BPR
[6] = Drug concentration in Sprague-Dawley rat CSF at 10 mg/kg, po after 2 hrs; format: ADME, organism-based, Cerebrospinal fluid; set-up: dose 10 mg/kg, route oral; details: read-out: Drug uptake
[7] = test system: Rattus norvegicus; assay: Ratio of drug level in CSF to unbound drug level in plasma of Sprague-Dawley rat at 10 mg/kg, po after 2 hrs; details: in vivo
[8] = molecular target: MDR1 (P-gp, ABCB1) (Homo sapiens, UniProt P08183); assay: in vitro; details: not told
Chain of MDR1 (P-gp, ABCB1) (P08183 whole entry): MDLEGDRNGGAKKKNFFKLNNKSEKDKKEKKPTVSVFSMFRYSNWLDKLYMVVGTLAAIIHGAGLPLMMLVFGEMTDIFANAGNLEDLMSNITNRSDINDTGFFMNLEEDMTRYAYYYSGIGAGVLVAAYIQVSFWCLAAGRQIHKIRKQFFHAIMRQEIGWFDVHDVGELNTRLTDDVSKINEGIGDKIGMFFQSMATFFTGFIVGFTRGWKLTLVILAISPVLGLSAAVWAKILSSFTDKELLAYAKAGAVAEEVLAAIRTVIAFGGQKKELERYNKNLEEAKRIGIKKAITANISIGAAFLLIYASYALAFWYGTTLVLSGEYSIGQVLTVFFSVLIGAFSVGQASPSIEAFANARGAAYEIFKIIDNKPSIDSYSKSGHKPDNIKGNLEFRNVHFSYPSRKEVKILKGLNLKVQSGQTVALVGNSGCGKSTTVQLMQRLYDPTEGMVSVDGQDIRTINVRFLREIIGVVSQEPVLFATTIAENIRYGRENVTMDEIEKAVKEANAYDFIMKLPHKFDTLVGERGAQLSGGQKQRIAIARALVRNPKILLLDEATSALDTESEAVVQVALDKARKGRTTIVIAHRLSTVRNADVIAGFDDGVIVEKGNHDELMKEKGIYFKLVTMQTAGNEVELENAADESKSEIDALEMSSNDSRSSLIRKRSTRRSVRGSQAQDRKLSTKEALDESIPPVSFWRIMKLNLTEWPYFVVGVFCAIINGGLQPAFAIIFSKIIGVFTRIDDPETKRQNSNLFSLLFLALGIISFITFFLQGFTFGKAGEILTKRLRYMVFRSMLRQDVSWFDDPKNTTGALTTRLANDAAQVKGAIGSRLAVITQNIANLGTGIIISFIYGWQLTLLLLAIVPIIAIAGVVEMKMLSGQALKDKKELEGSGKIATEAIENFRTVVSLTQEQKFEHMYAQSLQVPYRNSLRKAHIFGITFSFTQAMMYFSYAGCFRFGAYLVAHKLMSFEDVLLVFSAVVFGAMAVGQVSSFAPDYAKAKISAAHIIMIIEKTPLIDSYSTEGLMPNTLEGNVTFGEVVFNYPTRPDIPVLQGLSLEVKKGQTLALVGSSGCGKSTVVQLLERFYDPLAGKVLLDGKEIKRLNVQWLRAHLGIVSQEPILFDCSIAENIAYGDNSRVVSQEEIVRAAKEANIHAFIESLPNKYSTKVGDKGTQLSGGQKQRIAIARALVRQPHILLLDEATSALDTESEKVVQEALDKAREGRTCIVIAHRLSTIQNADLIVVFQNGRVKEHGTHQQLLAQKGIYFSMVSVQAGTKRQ
Description: Efflux ratio assessed as human MDR1-mediated directional transport ratio from basolateral to apical over apical to basolateral by cell based assay

[9] = Protein binding in human plasma; format: ADME, cell-free; details: read-out: PPB (converted)
[10] = Plasma concentration in Sprague-Dawley rat at 10 mg/kg, po after 2 hrs; format: ADME, organism-based; set-up: dose 10 mg/kg, route oral
[11] = Passive permeability across MDCK cells; format: ADME, cell-based, Canis lupus familiaris; details: dog
[12] = Protein binding in rat plasma; format: ADME, cell-free; details: read-out: PPB (converted)
[13] = molecular target: T2, Muscarinic acetylcholine receptor M1 (Homo sapiens) (UniProt P11229); assay: Positive allosteric modulation of human muscarinic M1 receptor expressing in CHONFAT cells assessed as potentiation of acetylcholine-induced calcium mobilization preincubated for 4 mins and measured 4 mins after acetylcholine stimulation by FLIPR assay; format: functional, cell-based
T2 sequence (whole entry): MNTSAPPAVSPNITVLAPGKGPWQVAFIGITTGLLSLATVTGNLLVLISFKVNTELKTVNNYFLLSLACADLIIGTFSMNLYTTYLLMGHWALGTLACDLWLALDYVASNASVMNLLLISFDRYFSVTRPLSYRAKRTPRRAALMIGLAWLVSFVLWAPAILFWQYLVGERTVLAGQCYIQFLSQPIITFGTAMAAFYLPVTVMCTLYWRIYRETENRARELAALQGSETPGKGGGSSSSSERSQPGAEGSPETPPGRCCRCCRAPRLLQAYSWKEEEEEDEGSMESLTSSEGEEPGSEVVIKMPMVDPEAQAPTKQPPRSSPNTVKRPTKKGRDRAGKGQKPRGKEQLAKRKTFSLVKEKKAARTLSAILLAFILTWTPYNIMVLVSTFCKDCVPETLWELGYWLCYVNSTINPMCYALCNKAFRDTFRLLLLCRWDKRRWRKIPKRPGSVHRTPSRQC

[14] = molecular target: T3, Muscarinic acetylcholine receptor M4 (Homo sapiens) (UniProt P08173); assay: Activity at muscarinic M4 receptor expressing in CHONFAT cells assessed as potentiation of acetylcholine-induced calcium mobilization preincubated for 4 mins and measured 4 mins after acetylcholine stimulation by FLIPR assay; format: functional, cell-based
T3 sequence (whole entry): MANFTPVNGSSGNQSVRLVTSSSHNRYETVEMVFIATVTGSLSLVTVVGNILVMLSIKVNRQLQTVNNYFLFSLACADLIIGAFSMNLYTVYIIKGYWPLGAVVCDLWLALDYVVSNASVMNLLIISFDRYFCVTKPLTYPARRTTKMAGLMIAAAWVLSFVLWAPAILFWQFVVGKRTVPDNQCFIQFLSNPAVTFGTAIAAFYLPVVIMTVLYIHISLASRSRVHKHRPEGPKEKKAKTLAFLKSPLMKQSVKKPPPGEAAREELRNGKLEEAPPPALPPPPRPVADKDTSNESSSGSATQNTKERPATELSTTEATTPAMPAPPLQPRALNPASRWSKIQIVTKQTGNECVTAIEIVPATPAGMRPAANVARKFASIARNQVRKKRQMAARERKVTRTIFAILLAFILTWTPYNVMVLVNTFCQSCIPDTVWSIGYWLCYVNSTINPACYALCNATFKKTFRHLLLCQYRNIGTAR

[15] = molecular target: Voltage-gated inwardly rectifying potassium channel KCNH2 (Homo sapiens, UniProt Q12809); assay: Binding affinity to human ERG
Chain of Voltage-gated inwardly rectifying potassium channel KCNH2 (Q12809 whole entry): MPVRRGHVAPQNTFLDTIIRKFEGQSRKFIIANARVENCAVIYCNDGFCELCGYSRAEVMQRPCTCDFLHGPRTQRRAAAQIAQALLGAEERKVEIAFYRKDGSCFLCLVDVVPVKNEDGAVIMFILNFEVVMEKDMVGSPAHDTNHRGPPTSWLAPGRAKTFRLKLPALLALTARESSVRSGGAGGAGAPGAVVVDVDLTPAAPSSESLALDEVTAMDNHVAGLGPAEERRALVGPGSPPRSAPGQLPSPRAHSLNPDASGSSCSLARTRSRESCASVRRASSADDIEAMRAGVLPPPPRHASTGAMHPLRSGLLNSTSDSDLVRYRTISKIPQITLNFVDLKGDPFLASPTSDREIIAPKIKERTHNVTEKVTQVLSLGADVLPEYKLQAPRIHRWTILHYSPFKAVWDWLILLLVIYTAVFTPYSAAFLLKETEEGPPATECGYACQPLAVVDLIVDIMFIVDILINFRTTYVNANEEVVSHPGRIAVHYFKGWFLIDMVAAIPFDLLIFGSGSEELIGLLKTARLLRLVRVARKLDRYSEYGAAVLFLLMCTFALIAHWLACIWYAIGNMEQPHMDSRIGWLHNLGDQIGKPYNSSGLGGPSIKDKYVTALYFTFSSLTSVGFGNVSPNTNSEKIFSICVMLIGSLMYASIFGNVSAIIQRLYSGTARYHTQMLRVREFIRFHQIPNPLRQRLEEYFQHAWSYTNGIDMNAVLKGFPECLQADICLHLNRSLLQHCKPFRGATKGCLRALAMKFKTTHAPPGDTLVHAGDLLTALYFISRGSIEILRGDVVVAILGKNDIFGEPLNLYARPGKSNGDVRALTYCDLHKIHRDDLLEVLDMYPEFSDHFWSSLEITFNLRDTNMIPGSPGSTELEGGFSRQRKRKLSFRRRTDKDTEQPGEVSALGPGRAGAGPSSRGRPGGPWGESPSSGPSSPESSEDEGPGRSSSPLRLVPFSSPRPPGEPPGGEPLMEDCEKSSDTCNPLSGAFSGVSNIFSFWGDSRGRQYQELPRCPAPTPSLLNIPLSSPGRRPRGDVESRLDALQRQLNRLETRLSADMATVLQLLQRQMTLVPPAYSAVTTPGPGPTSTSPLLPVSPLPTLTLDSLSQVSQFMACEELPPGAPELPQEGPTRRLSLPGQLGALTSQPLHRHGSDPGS

[16] = organism: Mus musculus; assay: Inhibition of scopolamine-induced memory deficit in mouse measured at plasma concentration of 1 uM after 24 hrs by contexual fear conditioning assay; format: functional, organism-based
[17] = organism: Mus musculus; assay: Inhibition of scopolamine-induced memory deficit in mouse measured at plasma concentration of 2.5 uM after 24 hrs by contexual fear conditioning assay; format: functional, organism-based
[18] = test system: Mus musculus; assay: Inhibition of scopolamine-induced memory deficit in mouse pretreated with 10 to 30 mg/kg, ip after 24 hrs by contexual fear conditioning assay; format: functional, organism-based
[19] = Fraction unbound in human plasma; format: ADME, cell-free
[20] = Fraction unbound in rat plasma; format: ADME, cell-free
[21] = molecular target: T2, Muscarinic acetylcholine receptor M1 (Homo sapiens); assay: Positive allosteric modulation of human muscarinic M1 receptor expressing in CHONFAT cells assessed as potentiation of acetylcholine-induced calcium mobilization at 34 uM preincubated for 4 mins and measured 4 mins after acetylcholine stimulation by FLIPR assay relative to untreated control; format: functional, cell-based
[22] = test system: Plasma; assay: Plasma concentration in mouse scopolamine-induced memory deficit model at 10 mg/kg, ip; format: ADME, organism-based; set-up: dose 10 mg/kg, route intraperitoneal; details: in vivo

SMILES	Activity [1]	Activity [2]	concentration at 2 h [3] [nM]	efflux ratio [4]	Kp at 2 h [5]	concentration at 2 h [6] [nM]	Ratio [7]	efflux ratio [8]	fraction unbound [9]	concentration at 2 h [10] [nM]	Papp [11] [×10⁻⁶ cm/s]	fraction unbound [12]	IP [13] [nM]	Activity [14]	also measured
N#CC1(c2ccccn2)CCN(Cc2cc(C(=O)N[C@H]3CCCC[C@@H]3F)c(=O)n3ccccc23)CC1	inactive	inactive	280	3.4	0.28	27	0.33	1.9	0.185	1120	26	0.073	147	inactive	
N#CC1(c2ccccn2)CCN(Cc2cc(C(=O)NC3CCCCC3)c(=O)n3ccccc23)CC1	inactive	inactive		2				1.6	0.066		28	0.044	253	inactive	
N#Cc1ccc(N2CCN(Cc3cc(C(=O)N[C@H]4CCCC[C@@H]4O)c(=O)n4ccccc34)CC2)cc1	inactive	inactive		4.7				1.1	0.095		30	0.061	244	inactive	IC50 [15]: 390 nM
N#CC1(c2ccccn2)CCN(Cc2cc(C(=O)O)c(=O)n3ccccc23)CC1 [MSD-M1PAM]				1.4			0.3	0.5	0.291	1480	18	0.318			inhibition [16]: Active
N#CC1(c2ccccc2)CCN(Cc2cc(C(=O)N[C@H]3CCCC[C@@H]3O)c(=O)n3ccccc23)CC1	inactive	inactive	896	3.3	0.52	29	0.58	2.3	0.148	1610	32	0.031	45	inactive	IC50 [15]: 5100 nM
O=C(N[C@H]1CCCC[C@@H]1O)c1cc(CN2CCN(c3cc4ccccc4cn3)CC2)c2ccccn2c1=O	inactive	inactive							0.087		29	0.032	110	inactive	inhibition [17]: Active
O=C(N[C@H]1CCCC[C@@H]1O)c1cc(CN2CCN(c3cc4scnc4cn3)CC2)c2ccccn2c1=O	inactive	inactive	77		0.19	4			0.082	375	37	0.051	22	inactive	
N#CC1(c2ccccn2)CCN(Cc2cc(C(=O)NC3CCOCC3)c(=O)n3ccccc23)CC1	inactive	inactive	559	7.5	0.21	215	0.3	2.4	0.49	2650	33	0.268	338	inactive	inhibition [18]: Active; fraction unbound [19]: 0.49; fraction unbound [20]: 0.27; fold change (FC) [21]: 52; concentration [22]: 2400 nM
N#CC1(c2ccccn2)CCN(Cc2cc(C(=O)NC3CCCCC3(F)F)c(=O)n3ccccc23)CC1 (stereo not drawn)	inactive	inactive		3.4				1.7	0.105		29	0.04	205	inactive	
